The source of these data is ChEMBL document CHEMBL1201862, “PubChem BioAssay data set” (2004).

Some test systems named below: NCI-H522; IGROV-1; SNB-75; HCT-15; SK-MEL-28; OVCAR-3; HOP-62; RXF 393; U-251; MDA-MB-231; ACHN; MDA-N; UACC-257; SF-539; NCI-H226; OVCAR-8; SK-MEL-5; COLO 205; SK-OV-3; BT-549.
Common to all, as to experiment: growth of human tumour cells (NCI), 48 h

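Cultured in 96-well plates, cells were exposed to test compound for 48 hours across five concentrations. GI50 marks 50% less growth.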 Active and inactive are the calls of the source. Cut-off read from the data, not from the text of the source: active = GI50 up to about 1.1 µM and inactive = higher. A value given as a limit tells only on which side of the number the result lay.

With `Cc1cccc2c1c(=O)c1c(O)cc3c(c1n2C)C=CC(C)(C)O3`, the GI50 in the experiment on NCI-H522 is > 100 µM (inactive); in the experiment with IGROV-1, 62.7 µM (inactive); with SNB-75, > 100 µM (inactive); in the experiment with HCT-15 it was above 100 µM; in the experiment with SK-MEL-28 it was > 100 µM (inactive); in the experiment with OVCAR-3 it was > 100 µM (inactive). The GI50 in the experiment with HOP-62, with RXF 393, with U-251, in the experiment on MDA-MB-231, in the experiment with ACHN and in the experiment on MDA-N was > 100 µM (inactive) in each case. Besides, the GI50 is > 100 µM (inactive) in the experiment with UACC-257; > 100 µM (inactive) in the experiment with SF-539; 96.4 µM (inactive) in the experiment on NCI-H226; > 100 µM (inactive) with OVCAR-8; 75 µM (inactive) in the experiment with SK-MEL-5; 33.7 µM (inactive) in the experiment on COLO 205. The GI50 with SK-OV-3 and with BT-549 was > 100 µM (inactive) each time.
As to `CN1C(=O)c2ccccc2C(O)(c2ccccc2)C1(O)c1ccccc1` (stereo not given), the GI50 in the experiment on NCI-H522 is > 100 µM (inactive); in the experiment on IGROV-1, 58.5 µM (inactive); in the experiment with SNB-75 it was 91 µM (inactive); in the experiment with HCT-15 it was above 100 µM; with SK-MEL-28, > 100 µM (inactive); in the experiment on OVCAR-3, > 100 µM (inactive). In addition, the GI50 with HOP-62 is > 100 µM (inactive); with RXF 393, 83.9 µM (inactive); in the experiment on U-251, > 100 µM (inactive); with MDA-MB-231, > 100 µM (inactive); in the experiment on ACHN, > 100 µM (inactive); with MDA-N it was > 100 µM (inactive). Also, the GI50 in the experiment with UACC-257 was > 100 µM (inactive); in the experiment with SF-539, > 100 µM (inactive); with NCI-H226, > 100 µM (inactive); in the experiment on OVCAR-8 it was > 100 µM (inactive); in the experiment on SK-MEL-5 it was 74.6 µM (inactive); in the experiment on COLO 205, > 100 µM (inactive). In addition, the GI50 in the experiment with SK-OV-3 is 52.4 µM (inactive); with BT-549, 81.1 µM (inactive).
On to `CC(C)(C)OC(=O)c1ccc(NCC2=CC(=O)C=CC2=O)cc1`, for which the GI50 with NCI-H522 was 1.63 µM (inactive); in the experiment on IGROV-1, 11.6 µM (inactive); in the experiment with SNB-75, 8.28 µM (inactive); with HCT-15 it was 7.18 µM; in the experiment on SK-MEL-28, 15.6 µM (inactive); in the experiment with OVCAR-3, 4.15 µM (inactive). Further, the GI50 was 25.9 µM (inactive) in the experiment on HOP-62; 11.4 µM (inactive) with RXF 393; 14 µM (inactive) in the experiment on U-251; 8.34 µM (inactive) in the experiment on MDA-MB-231; 10.1 µM (inactive) with ACHN; 12.5 µM (inactive) in the experiment on MDA-N. For the same molecule, the GI50 with UACC-257 is 12.3 µM (inactive); in the experiment with SF-539, 5.52 µM (inactive); with NCI-H226, 18.2 µM (inactive); with OVCAR-8 it was 13 µM (inactive); in the experiment on SK-MEL-5 it was 14.4 µM (inactive); in the experiment with COLO 205, 2.83 µM (inactive). Besides, the GI50 is 17.1 µM (inactive) in the experiment with SK-OV-3 and 11.6 µM (inactive) with BT-549.
In the case of `O=c1ccc2ccc(O)cc2o1` [UMBELLIFERONE], the GI50 in the experiment with NCI-H522 was > 100 µM (inactive); in the experiment on IGROV-1, > 100 µM (inactive); with SNB-75, > 100 µM (inactive); with HCT-15 it was above 100 µM; in the experiment with SK-MEL-28, > 100 µM (inactive); with OVCAR-3 it was > 100 µM (inactive). Further, the GI50 in the experiment with HOP-62, in the experiment with RXF 393, in the experiment on U-251, in the experiment with MDA-MB-231, in the experiment with ACHN and with MDA-N was > 100 µM (inactive) in each case. For the same molecule, the GI50 in the experiment with UACC-257, in the experiment with SF-539, in the experiment on NCI-H226, in the experiment on OVCAR-8, with SK-MEL-5 and with COLO 205 was > 100 µM (inactive) throughout. The GI50 in the experiment with SK-OV-3 and in the experiment on BT-549 was > 100 µM (inactive) in each case.
Take `O=C1/C(=C/c2ccccc2)CN(C(=O)CCN2CCOCC2)C/C1=C\c1ccccc1`: the GI50 was 2.01 µM (inactive) with NCI-H522; 6.04 µM (inactive) with IGROV-1; 7.18 µM (inactive) in the experiment on SNB-75; 2.14 µM in the experiment with HCT-15; 1.86 µM (inactive) in the experiment with SK-MEL-28; 3.91 µM (inactive) in the experiment with OVCAR-3. Moreover, the GI50 in the experiment with HOP-62 is 8.45 µM (inactive); in the experiment on RXF 393, 4.38 µM (inactive); in the experiment with U-251 it was 1.79 µM (inactive); in the experiment with MDA-MB-231, 3.47 µM (inactive); with ACHN it was 3.49 µM (inactive); in the experiment with MDA-N, 2.06 µM (inactive). For the same molecule, the GI50 was 2.13 µM (inactive) in the experiment with UACC-257; 2.06 µM (inactive) in the experiment with SF-539; 5.89 µM (inactive) in the experiment with NCI-H226; 2.99 µM (inactive) with OVCAR-8; 2.17 µM (inactive) in the experiment with SK-MEL-5; 2.74 µM (inactive) in the experiment on COLO 205. Further, the GI50 in the experiment with SK-OV-3 is 10.7 µM (inactive); in the experiment with BT-549, 2.14 µM (inactive).
`CC(=O)C1=C(C)N2C(=NC3=C(CCc4ccccc43)C2c2ccc(Cl)cc2)S1` (stereo not given): the GI50 in the experiment with NCI-H522 is 6.53 µM (inactive); in the experiment on IGROV-1 it was 12.3 µM (inactive); in the experiment on SNB-75, > 32.5 µM (inactive); with HCT-15, 29.2 µM; in the experiment on SK-MEL-28 it was > 100 µM (inactive); in the experiment with OVCAR-3, > 38.7 µM (inactive). Further, the GI50 in the experiment with HOP-62 was > 100 µM (inactive); with RXF 393 it was 5.56 µM (inactive); with U-251, > 67.5 µM (inactive); in the experiment with MDA-MB-231, > 100 µM (inactive); in the experiment on ACHN, > 100 µM (inactive); in the experiment on MDA-N, 46.8 µM (inactive). Besides, the GI50 in the experiment on UACC-257 is > 78.5 µM (inactive); in the experiment on SF-539, > 92.9 µM (inactive); with NCI-H226 it was > 100 µM (inactive); with OVCAR-8, > 100 µM (inactive); in the experiment on SK-MEL-5, 26.1 µM (inactive); in the experiment on COLO 205 it was 21.4 µM (inactive). Moreover, the GI50 with SK-OV-3 and with BT-549 was > 100 µM (inactive) each time.
Regarding `CCOC1(OCC)C2C=CC1C(COS(=O)(=O)c1ccc(C)cc1)C2COS(=O)(=O)c1ccc(C)cc1` (stereo not given), the GI50 in the experiment with NCI-H522 is 18.1 µM (inactive); in the experiment on IGROV-1, 43.1 µM (inactive); in the experiment with SNB-75 it was 24.8 µM (inactive); in the experiment on HCT-15 it was 26 µM; in the experiment with SK-MEL-28, 84.9 µM (inactive); in the experiment with OVCAR-3 it was 22.5 µM (inactive). Moreover, the GI50 is 45.8 µM (inactive) in the experiment on HOP-62; 39.9 µM (inactive) in the experiment with RXF 393; 29.9 µM (inactive) in the experiment on U-251; 22.1 µM (inactive) in the experiment on MDA-MB-231; 33.7 µM (inactive) with ACHN; 28.8 µM (inactive) in the experiment on MDA-N. Moreover, the GI50 in the experiment on UACC-257 was 25.4 µM (inactive); in the experiment with SF-539 it was 41.4 µM (inactive); in the experiment with NCI-H226 it was 24.3 µM (inactive); in the experiment on OVCAR-8 it was 40.9 µM (inactive); in the experiment on SK-MEL-5, 15.2 µM (inactive); with COLO 205 it was 24.1 µM (inactive). Further, the values for the GI50 in the experiment with SK-OV-3 and in the experiment with BT-549 were 33.3 µM (inactive) and 29.3 µM (inactive), respectively.
